Consider 15 compounds from PMC4362054, “C-5’-Triazolyl-2’-oxa-3’-aza-4’a-carbanucleosides: Synthesis and biological evaluation” (Beilstein Journal of Organic Chemistry, 2015).

Series [1] is described as follows: Inhibition of cell proliferation (MTT method), Vero cells. Type of series: cell-based. Particulars: African green monkey, Vero cells (African green monkey kidney), concentration which inhibited cell growth by 50% vs control cultures, mean of three assays. (Formazan colour is commonly taken as a measure of viable cells.)
In a further series the test system is HEp-2 cells. In words: Inhibition of cell proliferation (MTT method), HEp-2 cells. Type of series: cell-based, human. Particulars: concentration which inhibited cell growth by 50% vs control cultures, mean of three assays, read-out: CC50 HEp2.
Series [2] can be described thus: Inhibition of cell proliferation (MTT method), BS-C-1 cells. The following applies: African green monkey, BS-C-1 cells (African green monkey kidney), concentration which inhibited cell growth by 50% vs control cultures, mean of three assays. Type of series: cell-based.
Series [3] in a line: Inhibition of cell proliferation (MTT method), HFF cells. Particulars: human, HFF cells (human foreskin fibroblasts), concentration which inhibited cell growth by 50% vs control cultures, mean of three assays. Type of series: cell-based, human.
Series [4] can be described thus: Inhibition of cell proliferation (MTT method), MDCK cells. Type of series: cell-based. The following applies: dog, MDCK cells (Madin-Darby canine kidney), concentration which inhibited cell growth by 50% vs control cultures, mean of three assays.
The subject of another series is HFF cells. Nature of the series: Inhibition of cell proliferation (MTT method), HFF cells. The following applies: concentration which inhibited cell growth by 50% vs control cultures, mean of three assays. Type of series: cell-based, human.
Series [5] is described as follows: Inhibition of cell proliferation (MTT method), HEp-2 cells. Type of series: cell-based, human. The following applies: human, HEp-2 cells (human epidermoid carcinoma larynx), concentration which inhibited cell growth by 50% vs control cultures, mean of three assays, read-out: CC50 HEp2.
The conditions of series [6]: statement in words; reference not given; cited from earlier work.
For series [7] the following is noted: statement in words; reference not given; cited from earlier work. This is another data set of the same source.

By CC50 is commonly meant the concentration that lowers cell viability or growth by half. A word on the melting point: it is the temperature of the solid-liquid transition.

For `Cc1cn([C@H]2C[C@H](Cn3cc(CO)nn3)N(C)O2)c(=O)[nH]c1=O` [14b], the melting point was in the range of 198 to 201 °C. Further, the CC50 in series [1] was determined as 20 µM. Besides, the CC50 in the series with HEp-2 cells was 40 µM. In addition, it took 10 µM to reach half-maximal cytotoxicity in series [2] (CC50). This compound displayed a CC50 in [3] of 20 µM. The compound also registered a CC50 in series [4] of 20 µM.
In turn, `Cc1cn([C@@H]2C[C@H](Cn3cc(CCO)nn3)N(C)O2)c(=O)[nH]c1=O` [13a] came in with a melting point of 215 to 218 °C. It took 10 µM to reach half-maximal cytotoxicity in series [1] (CC50). Moreover, the CC50 in the series with HEp-2 cells was found to be 40 µM. Besides, in [2], the CC50 was determined as 10 µM. Moreover, in series [3], the CC50 was 10 µM. Also, in series [4], the CC50 is 10 µM.
Compound `COc1ccc(-c2cn(C[C@H]3C[C@@H](n4cc(C)c(=O)[nH]c4=O)ON3C)nn2)cc1` [13e] registered a melting point of 215 to 218 °C. The CC50 in series [1] came to 20 µM. In addition, in the series on HEp-2 cells, the CC50 amounted to 40 µM. In addition, in [2], the CC50 turned out to be 20 µM. Also, it took 5 µM to reach half-maximal cytotoxicity in the series on HFF cells (CC50). Moreover, the CC50 in series [4] came out at 20 µM.
Take `CCCCCc1ccc(-c2cn(C[C@H]3C[C@H](n4cc(C)c(=O)[nH]c4=O)ON3C)nn2)cc1` [14g]: the melting point fell in the range of 245 to 248 °C. Besides, it took 10 µM to reach half-maximal cytotoxicity in series [1] (CC50). Besides, the CC50 in series [5] worked out at 20 µM. The compound also had a CC50 in [2] of 10 µM. This compound also gave a CC50 in the series with HFF cells of 5 µM. Besides, in [4], it took 10 µM to reach half-maximal cytotoxicity (CC50).
For the compound `Cc1cn([C@@H]2C[C@H](Cn3cc(-c4ccccc4)nn3)N(C)O2)c(=O)[nH]c1=O` [13d], the melting point is 268 to 272 °C. Also, in series [1], it took 20 µM to reach half-maximal cytotoxicity (CC50). The CC50 in series [5] was found to be 20 µM. Also, in series [2], it took 20 µM to reach half-maximal cytotoxicity (CC50). This compound had a half-maximal cytotoxic concentration (CC50) in the series on HFF cells of 5 µM. The same compound had a CC50 in series [4] of 20 µM.
For `CCCCCc1ccc(-c2cn(C[C@H]3C[C@@H](n4cc(C)c(=O)[nH]c4=O)ON3C)nn2)cc1` [13g], the melting point fell in the range of 259 to 260 °C. It took 10 µM to reach half-maximal cytotoxicity in series [1] (CC50). Further, the CC50 in [5] came out at 20 µM. Further, half-maximal cytotoxicity in series [2] (CC50) was put at 10 µM. This compound also displayed a CC50 in the series on HFF cells of 5 µM. Further, the CC50 in [4] came out at 10 µM.
On to `Cc1cn([C@@H]2C[C@H](CO)N(C)O2)c(=O)[nH]c1=O` [compound 8, (3′RS,5′SR)-2′-N-methyl-3′-hydroxymethyl-1′,2′-isoxazolidin-5′-ylthymine], for which, in [6], the antiviral activity entry was “endowed with antiviral activity”. Besides, the cytotoxicity result in series [7] was “do not show any cytotoxicity”.
In turn, `Cc1cn([C@H]2C[C@H](Cn3cc(CCO)nn3)N(C)O2)c(=O)[nH]c1=O` [14a] yielded a melting point of 202 to 206 °C. The compound also gave a CC50 in series [1] of 20 µM. Also, in the series on HEp-2 cells, the CC50 is 40 µM. In series [2], this compound returned a CC50 of 20 µM. Also, in series [3], the CC50 was 20 µM. In series [4], this compound displayed a CC50 of 20 µM.
Take `CCCc1cn(C[C@H]2C[C@H](n3cc(C)c(=O)[nH]c3=O)ON2C)nn1` [14c]: the melting point lay in the range of 168 to 170 °C. Further, the CC50 in series [1] was 20 µM. Further, the CC50 in the series on HEp-2 cells worked out at 40 µM. In series [2], this compound had a CC50 of 20 µM. In the series with HFF cells, this compound had a CC50 of 5 µM. In series [4], this compound came in with a CC50 of 20 µM.
Take `Cc1cn([C@@H]2C[C@H](Cn3cc(CO)nn3)N(C)O2)c(=O)[nH]c1=O` [13b]: the melting point lay within 205 to 210 °C. Moreover, in series [1], the CC50 was 40 µM. Moreover, the CC50 in the series on HEp-2 cells was found to be 40 µM. Also, the midpoint of cytotoxicity in series [2], the CC50, lay at 30 µM. In [3], this compound came in with a CC50 of 30 µM. The compound also showed a CC50 in series [4] of 30 µM.
The compound `Cc1cn([C@@H]2C[C@H](Cn3cc(-c4ccc(F)cc4)nn3)N(C)O2)c(=O)[nH]c1=O` [13f] showed a melting point of 269 to 271 °C. This compound also yielded a CC50 in series [1] of 10 µM. Further, the CC50 in the series on HEp-2 cells turned out to be 40 µM. Also, in series [2], the CC50 amounted to 10 µM. For the same compound, the CC50 in series [3] was determined as 40 µM. Also, the CC50 in series [4] worked out at 10 µM.
In turn, `Cc1cn([C@H]2C[C@H](Cn3cc(-c4ccccc4)nn3)N(C)O2)c(=O)[nH]c1=O` [14d] registered a melting point of 233 to 235 °C. This compound had a CC50 in [1] of 5 µM. For the same compound, the CC50 in series [5] was 5 µM. For the same compound, the CC50 in series [2] worked out at 5 µM. The compound also had a CC50 with HFF cells of 5 µM. The compound further registered a CC50 in series [4] of 5 µM.
On to `CCCc1cn(C[C@H]2C[C@@H](n3cc(C)c(=O)[nH]c3=O)ON2C)nn1` [13c], for which the melting point is 132 to 137 °C. In addition, half-maximal cytotoxicity in series [1] (CC50) was put at 20 µM. In the series on HEp-2 cells, the CC50 is 40 µM. The same compound showed a CC50 in series [2] of 20 µM. In addition, in the series with HFF cells, the CC50 worked out at 5 µM. For the same compound, the CC50 in [4] worked out at 20 µM.
As to `COc1ccc(-c2cn(C[C@H]3C[C@H](n4cc(C)c(=O)[nH]c4=O)ON3C)nn2)cc1` [14e], the melting point lay in the range of 202 to 205 °C. For the same compound, half-maximal cytotoxicity in series [1] (CC50) was put at 20 µM. In addition, the CC50 in the series with HEp-2 cells amounted to 40 µM. Besides, in series [2], the CC50 came out at 20 µM. In addition, the midpoint of cytotoxicity in the series on HFF cells, the CC50, lay at 5 µM. This compound also yielded a CC50 in series [4] of 20 µM.
With `Cc1cn([C@H]2C[C@H](Cn3cc(-c4ccc(F)cc4)nn3)N(C)O2)c(=O)[nH]c1=O` [14f], the melting point was in the range of 230 to 233 °C. For the same compound, half-maximal cytotoxicity in [1] (CC50) was put at 20 µM. The CC50 with HEp-2 cells is 40 µM. Besides, in series [2], the CC50 turned out to be 20 µM. The compound further came in with a CC50 in the series with HFF cells of 5 µM. Besides, in [4], the midpoint of cytotoxicity, the CC50, lay at 20 µM.
